Data reported in patent publication US8748601B2, “Selective serine/threonine kinase inhibitors” (The Regents of the University of California, priority 2003, dated 2014).

Key:
Rsk2 [1] = assay: Labeling by biotin-1 / bodipy-1 in Xenopus egg cytosol and competition by unlabeled compound; assay type: binding; conditions: for Labeling of 90 kD protein by bodipy-1 after pretreatment: pretreatment with 1 μM
Procedure: To test whether compounds 1 and 2 (Formula IA, chloromethyl ketone and methyl enoate respectively) bind selectively and irreversibly to Rsk2, compound 1 was labeled with biotin. Xenopus egg cytosol was treated with 1 μM biotin-1. A major biotinylated 90 kD protein was detected by immunoblot analysis with streptavidin-HRP. Labeling of p90 with biotin-1 was abolished by pretreatment of the cytosol 1 μM of unlabeled 1. Thus, p90 is completely saturated by 1 at a concentration of 1 μM.
Labeling was abolished by pretreatment with 1 μM of 1 or 2.

Rsk = Rsk autophosphorylation of Ser381 in Swiss 3T3 cells (Western blot); assay type: cell-based; conditions: 5 μM, 1 hour, growth factors 10 min
Procedure: (§1) Enoate 2 blocks Rsk autophosphorylation of Ser381, which is catalyzed by its cysteine-containing C-terminal kinase domain. […] Swiss 3T3 cells were serum starved for 24 hours and treated with 5 μM enoate or 0.1% DMSO (control) for 1 hour. The cells were then stimulated with growth factors for 10 min. and lysed with 1×SDS-PAGE sample buffer. Proteins were separated by SDS-PAGE and transferred to nitrocellulose membranes for Western blot analysis. Phosphorylation-specific antibodies against Rsk and Erk were purchased from Cell Signaling. Antibodies against nonphosphorylated Rsk and Erk were purchased from Santa Cruz Biotech and Cell Signaling, respectively. (FIG. 4.)

Erk = Erk phosphorylation in Swiss 3T3 cells (Western blot); assay type: cell-based; conditions: 5 μM, 1 hour, growth factors 10 min
Procedure: as §1

animal carcinoma model = conditions: compared with reversible quinazoline inhibitors; cited from earlier work
V281C v-Src (v-Src-es1) [2] = assay: Covalent labeling by biotin-cmk in NIH3T3 fibroblasts expressing v-Src-es1; assay type: cell-based; conditions: biotin-cmk 2 μM, whole cell lysates
Excerpt: (§2) To test whether cmk 4 could covalently label and inhibit Src kinases in vivo, we generated NIH3T3 fibroblast cell lines that stably overexpress either a wt v-Src allele or an electrophile-sensitive mutant, V281C v-Src (v-Src-es1). v-Src is constitutively active, and as a result of its expression in these cells, there is a substantial increase in phosphotyrosine levels. […] To test whether cmk 4 forms an irreversible, covalent bond with V281C v-Src, we conjugated biotin to the hydroxypropyl substituent. This point of attachment was chosen based on the model of cmk 4 bound to Hck in which the hydroxypropyl substituent is pointing out into solution.
(§3) NIH3T3 fibroblasts expressing either v-Src-es1 or v-Src were pretreated with increasing concentrations of cmk 4. Whole cells lysates were then prepared and treated with biotin-cmk (2 μM).

wt v-Src [3] = assay: Covalent labeling by biotin-cmk in NIH3T3 fibroblasts expressing wt v-Src; assay type: cell-based; conditions: biotin-cmk 2 μM, whole cell lysates
Excerpt: as §2, §3

V281C v-Src (v-Src-es1) [4] = molecular target: T1, V281C v-Src (v-Src-es1) (UniProt P00524, V281C, species not given); assay: Covalent labeling by biotin-cmk in NIH3T3 fibroblasts expressing v-Src-es1; assay type: cell-based
T1 construct: other: pretreatment of intact cells; lysates treated with biotin; Labeling of v-Src-es1 by biotin-cmk after pretreatment; other: pretreatment of intact cells with 1 μM
Excerpt: as §2, §3

v-Src-es1 = assay: Global phosphotyrosine levels in NIH3T3 cells expressing v-Src-es1; assay type: cell-based
Excerpt: (§4) We also investigated whether cmk 4 could block the function of v-Src-es1 in mammalian cells by monitoring global phosphotyrosine levels in cells expressing either wt v-Src or v-Src-es1.

wt v-Src [5] = assay: Global phosphotyrosine levels in NIH3T3 cells expressing wt v-Src; assay type: cell-based
Excerpt: as §4

[6] = system: NIH3T3 cells expressing v-Src-es1; assay: Reversion of transformed morphology in cells expressing v-Src-es1; assay type: cell-based; conditions: 1 μM, 16 h
Excerpt: (§5) Overexpression of v-Src in NIH3T3 fibroblasts causes morphological transformation. Nontransformed NIH3T3 cells have a flat morphology, characterized by long bundles of filamentous actin (“stress fibers”) that can be visualized by fluorescence microscopy. In contrast, NIH3T3 cells overexpressing wt v-Src or v-Src-es1 have a disorganized actin cytoskeleton that results in a round morphology. […] Under the same conditions, cells expressing wt v-Src are not affected by cmk 4 and maintain a round morphology (FIG. 8A). The effects of cmk 4 on cell morphology were quantified by counting 100-200 cells under each treatment condition for both wt v-Src and v-Src-es1. Approximately 80% of the cells expressing v-Src-es1 regain a flattened morphology upon treatment with 1 μM cmk 4, whereas less than 2% of cells expressing wt v-Src have actin stress fibers (FIG. 8B).

[7] = system: NIH3T3 cells expressing wt v-Src; assay: Reversion of transformed morphology in cells expressing wt v-Src; assay type: cell-based; conditions: 1 μM, 16 h
Excerpt: as §5

Rsk2 CTD [8] = molecular target: T2, Rsk2 CTD (Homo sapiens, UniProt P51812); assay: Rsk2 CTD in vitro kinase assay, wild type; assay type: biochemical
T2 construct: We tested the halomethylketones against the Rsk2 CTD by adapting an in vitro kinase assay; made in house
Excerpt: (§6) We tested the halomethylketones against the Rsk2 CTD by adapting an in vitro kinase assay developed by Chrestensen and Sturgill, J, Biol. Chem. 277:27733 (2002).

Val285Cys Fyn = Val285Cys Fyn (Homo sapiens, UniProt P06241, V285C); assay: Inactivation of engineered Val285Cys Fyn; assay type: biochemical
wt Fyn = wt Fyn (Homo sapiens, UniProt P06241); assay: wt Fyn kinase activity in vitro; conditions: 30 nM
Rsk2 CTD Cys436Val = molecular target: T3, Rsk2 CTD Cys436Val (Homo sapiens, UniProt P51812, C436V); assay: Rsk2 CTD in vitro kinase assay, Cys436Val mutant; assay type: biochemical
T3 construct: we expressed and purified two CTD mutants, Cys436Val and Thr493Met; made in house
Excerpt: as §6

Rsk2 CTD Thr493Met = molecular target: T4, Rsk2 CTD Thr493Met (Homo sapiens, UniProt P51812, T493M); assay: Rsk2 CTD in vitro kinase assay, Thr493Met mutant; assay type: biochemical
T4 construct: we expressed and purified two CTD mutants, Cys436Val and Thr493Met; made in house
Excerpt: as §6

Rsk2 CTD [9] = molecular target: Rsk2 CTD (Chlorocebus sabaeus, UniProt A0A0D9RPY4); assay: EGF-stimulated Ser386 phosphorylation in COS-7 cells; assay type: cell-based; conditions: read-out: Reduction of Ser386 phosphorylation
Excerpt: (§7) The only known Rsk2 CTD substrate is an autophosphorylation site, Ser386, in the linker region connecting the NTD and CTD. Phosphorylation of Ser386 creates a docking site for another kinase, phosphoinositide-dependent kinase 1 (PDK1), which phosphorylates and activates the NTD. […] The signaling pathway between EGF and Erk1/2 involves at least three protein kinases (EGFR, Raf, and MEK), two of which (EGFR and Raf) have threonine gatekeepers and cysteines in their ATP binding pockets (albeit at different locations relative to Rsk2 Cys436).

Erk1/2 = assay: EGF-stimulated Erk1/2 phosphorylation (Thr202, Tyr204) in COS-7 cells; assay type: cell-based; conditions: 10 μM
Excerpt: as §7

Rsk1 = molecular target: T5, Rsk1 (Homo sapiens, UniProt Q15418); assay: Suppression of labeling by biotinylated fmk in human epithelial cell lysate, Rsk1; assay type: binding; conditions: pretreatment with unlabeled compound
T5 construct: a crude lysate prepared from human epithelial cells; endogenous in cells
Excerpt: A major concern with any pharmacological agent is its selectivity, not only among related family members, but among all other coexpressed proteins. To determine the global kinetic selectivity of fmk 5, we added a biotinylated derivative to a crude lysate prepared from human epithelial cells. Only two proteins in the lysate were labeled. […] Affinity purified antibodies raised against a Rsk1 peptide specifically immunoprecipitated the lower band, whereas a Rsk2 monoclonal antibody was specific for the upper band. Both proteins remained in the supernatant when a control rabbit IgG was used.

Rsk2 [10] = molecular target: Rsk2 (Homo sapiens, UniProt P51812); assay: Suppression of labeling by biotinylated fmk in human epithelial cell lysate, Rsk2; assay type: binding; conditions: pretreatment with unlabeled compound
Excerpt: A major concern with any pharmacological agent is its selectivity, not only among related family members, but among all other coexpressed proteins.

Chemical stability = assay type: physicochemical; conditions: compared with cmk 4

SMILES: COC(=O)/C=C/c1c(-c2ccc(C)cc2)c2c(N)ncnc2n1CCCO [Compound 2]
- Labeling of 90 kD protein by bodipy-1 after pretreatment (Rsk2 [1]): abolished
- Rsk autophosphorylation of Ser381 (Rsk): blocks
- Erk phosphorylation (Erk): does not block

SMILES: C=CC(=O)Nc1ccc2ncnc(Nc3cccc(Br)c3)c2c1 [PD 168393]
- Efficacy in an animal carcinoma model (animal carcinoma model): far superior to reversible quinazoline inhibitors

SMILES: Cc1ccc(-c2c(C(=O)CCl)n(CCCOC(=O)NCCCCNC(=O)CCCCC3SCC4NC(=O)NC43)c3ncnc(N)c23)cc1 (stereo not drawn) [biotin-cmk]
- Covalent labeling of v-Src-es1 (V281C v-Src (v-Src-es1) [2]): covalently targeted v-Src-es1
- Covalent labeling of wt v-Src (wt v-Src [3]): absence of covalent labeling

SMILES: Cc1ccc(-c2c(C(=O)CCl)n(CCCO)c3ncnc(N)c23)cc1 [cmk 4]
- Concentration at which p90 is completely saturated (Rsk2 [1]; Xenopus egg cytosol): 1 µM
- Labeling of p90 with biotin-1 after pretreatment with unlabeled compound (Rsk2 [1]; pretreatment of the cytosol 1 μM, streptavidin-HRP immunoblot): abolished
- Labeling of 90 kD protein by bodipy-1 after pretreatment (Rsk2 [1]): abolished
- Labeling of v-Src-es1 by biotin-cmk after pretreatment (V281C v-Src (v-Src-es1) [4]; pretreatment of intact cells with 1 μM): abolished
- IC50 (V281C v-Src (v-Src-es1) [4]; read-out: IC50 for blocking labeling of v-Src-es1 by biotin-cmk, pretreatment of intact cells, lysates treated with biotin-cmk 2 μM): < 100 nM
- Detectable phosphotyrosine in cells overexpressing v-Src-es1 (v-Src-es1; 1 μM): near-complete reduction
- Tyrosine phosphorylation in cells overexpressing v-Src-es1 (v-Src-es1; increasing concentrations): dose-dependent decrease
- Function of mutant v-Src in mammalian cells (v-Src-es1; summary statement): irreversibly blocked the function
- Phosphotyrosine in cells overexpressing wt v-Src (wt v-Src [5]; 1 μM): no apparent effect
- Effect on wt v-Src in mammalian cells (wt v-Src [5]; summary statement): no effect
- Cells expressing v-Src-es1 that regain a flattened morphology [6]: Approximately 80%
- Transformed morphology of cells expressing v-Src-es1 ([6]; FITC-phallodin staining): caused reversion of the transformed morphology
- Cells expressing wt v-Src that have actin stress fibers [7]: less than 2%
- Morphology of cells expressing wt v-Src [7]: not affected
- Inhibition of kinase activity of Rsk2 CTD (Rsk2 CTD [8]): potently inhibited
- Fold more potent than fmk 5 toward Val285Cys Fyn (Val285Cys Fyn): 100 fold
- Inactivation of engineered Fyn with cysteine in place of Val285 (Val285Cys Fyn; 30 nM): rapidly inactivated
- Time to inactivate Val285Cys Fyn (Val285Cys Fyn; 100 nM, 1 mM ATP): less than 5 min
- Effect on wild-type (WT) Fyn (wt Fyn): no effect

SMILES: Cc1ccc(-c2c(C(=O)CF)n(CCCO)c3ncnc(N)c23)cc1 [fmk 5]
- Inhibition of kinase activity of Rsk2 CTD (Rsk2 CTD [8]): potently inhibited
- Half-time of inactivation of Rsk2 CTD (Rsk2 CTD [8]; 1 μM, 1 mM ATP): less than 10 min
- Inhibition and covalent modification of Cys436Val mutant (Rsk2 CTD Cys436Val): resistant to inhibition and covalent modification
- Inhibition and covalent modification of Thr493Met mutant (Rsk2 CTD Thr493Met): resistant to inhibition and covalent modification
- inhibition at 3 µM (Rsk2 CTD [9]): 95%
- EGF-stimulated phosphorylation of Erk1/2 Thr202 and Tyr204 (Erk1/2): no effect
- Concentration for complete saturation of Rsk1 (Rsk1): 0.3 µM
- Concentration for complete saturation of Rsk2 (Rsk2 [10]): 1 µM
- Chemical stability (Chemical stability): greater chemical stability

SMILES: Cc1ccc(-c2cn(CCCO)c3ncnc(N)c23)cc1 [scaffold A]
- Fold weaker than fmk 5 toward WT Rsk2 (Rsk2 CTD [8]): 80 fold
- IC50 (Rsk2 CTD [8]; Rsk2 CTD WT, read-out: IC50 values, WT): 1200 ± 80 nM
- Potency relative to fmk 5 against the Cys436Val mutant (Rsk2 CTD Cys436Val): much more potent than fmk 5
- IC50 (Rsk2 CTD Cys436Val; Rsk2 CTD C436V): 430 ± 140 nM
- IC50 (Rsk2 CTD Thr493Met; Rsk2 CTD mutant, read-out: IC50 values, T439M): > 30000 nM
